Calls of active or inactive are those of the source. The calls are words filed in the database; no cut-off is given here.

The nature of data set [1]: Inhibition of iNOS expression in BALB/c mouse peritoneal macrophages stimulated with Leishmania amazonensis assessed as decrease in nitrite levels at 200 nM pretreated for 1 hr followed by parasite stimulation and measured after 48 hrs by Griess reagent based assay. Conditions: time 49 hrs. The data set is classed as functional, Peritoneal macrophage.
The test system of data set [2] is Leishmania amazonensis. Nature of the data set: Antileishmanial activity against Leishmania amazonensis (MHOM/BR/76/MA-76) promastigotes assessed as upward shift in concentration response curves of parasite viability incubated for 24 hrs by MTT assay. It counts as functional, organism-based. (Formazan colour is commonly taken as a measure of viable cells.)
For data set [3], the system named is Peritoneal macrophage. Nature of the data set: Upregulation of IL-12 mRNA expression in BALB/c mouse peritoneal macrophages stimulated with Leishmania amazonensis at 50 uM measured after 48 hrs by qRT-PCR analysis. It counts as functional, tissue-based.
Data set [4] is described as follows: Inhibition of iNOS expression in BALB/C mouse peritoneal macrophages stimulated with Leishmania amazonensis assessed as decrease in nitrite levels at 50 uM pretreated with 1400W for 1 hr followed by parasite stimulation and measured after 48 hrs by Griess reagent based assay (Rvb= 2.60 +/- -.236 uM). It counts as functional, Peritoneal macrophage. On the technique in general: Griess reagent forms a coloured azo dye with nitrite.

Data set [5] deals with Leishmania amazonensis. Nature of the data set: Antileishmanial activity against Leishmania amazonensis (MHOM/BR/76/MA-76) intracellular amastigotes infected in BALB/c mouse peritoneal macrophages assessed as decrease in number of amastigotes per 100 cells at 10 to 40 uM incubated for 24 hrs by Giemsa's azur-eosin-methyle blue staining based light microscopy analysis. The conditions noted are these: Peritoneal macrophage, dose 10-40 µM. It counts as functional, organism-based.

Data set [6] relates to Leishmania amazonensis. The data set is described as follows: Antileishmanial activity against Leishmania amazonensis (MHOM/BR/76/MA-76) intracellular amastigotes infected in BALB/c mouse peritoneal macrophages assessed as decrease in number of amastigotes per infected cells at 20 to 40 uM incubated for 24 hrs by Giemsa's azur-eosin-methyle blue staining based light microscopy analysis. The conditions noted are these: Peritoneal macrophage, dose 20-40 µM. It counts as functional, organism-based.

The nature of data set [7]: Cytotoxicity against BALB/c mouse peritoneal macrophages assessed as reduction in cell viability incubated for 24 hrs by MTT assay. It counts as cell-based, Peritoneal macrophage.
A short description of data set [8]: Inhibition of iNOS expression in BALB/c mouse peritoneal macrophages assessed as decrease in LPS induced nitrite levels at 50 uM pretreated with 1400W for 1 hr followed by LPS stimulation further treated with test compound and measured after 48 hrs by Griess reagent based assay (Rvb= 4.27 +/- 0.432 uM). The data set is classed as functional, Peritoneal macrophage.

In data set [9] the test system is Leishmania amazonensis. Nature of the data set: Antileishmanial activity against Leishmania amazonensis (MHOM/BR/76/MA-76) promastigotes assessed as reduction in parasite growth incubated for 24 hrs by MTT assay. It counts as functional, organism-based. The conditions noted are these: MHOM/BR/76/MA-76, 24 h.
Data set [10] in a line: Selectivity ratio of IC50 for antileishmanial activity against Leishmania amazonensis (MHOM/BR/76/MA-76) promastigotes to IC50 for antileishmanial activity against Leishmania amazonensis (MHOM/BR/76/MA-76) intracellular amastigotes infected in BALB/c mouse peritoneal macrophages. The data set is classed as functional.
For data set [11], the system named is Leishmania amazonensis. Nature of the data set: Induction of morphological changes in Leishmania amazonensis (MHOM/BR/76/MA-76) promastigotes assessed as formation of small vesicles surrounded by a membrane in cytoplasm at IC50 incubated for 24 hrs by transmission electron microscopy analysis. The data set is classed as functional, organism-based.
Data set [12] concerns Leishmania amazonensis. The data set is described as follows: Antileishmanial activity against Leishmania amazonensis (MHOM/BR/76/MA-76) intracellular amastigotes infected in BALB/c mouse peritoneal macrophages assessed as percentage of infected cells at 15.52 uM measured after 24 hrs by Giemsa's azur-eosin-methylene blue staining based light microscopy analysis. It counts as functional, Peritoneal macrophage.

The subject of data set [13] is Leishmania amazonensis. Nature of the data set: Antileishmanial activity against Leishmania amazonensis (MHOM/BR/76/MA-76) intracellular amastigotes infected in BALB/c mouse peritoneal macrophages assessed as number of amastigotes per cell at 15.52 uM measured after 24 hrs by Giemsa's azur-eosin-methylene blue staining based light microscopy analysis. It counts as functional, Peritoneal macrophage.

The subject of data set [14] is Leishmania amazonensis. The data set is described as follows: Antileishmanial activity against Leishmania amazonensis (MHOM/BR/76/MA-76) intracellular amastigotes infected in BALB/c mouse peritoneal macrophages assessed as low amastigote mean at 5 to 40 uM incubated for 24 hrs by Giemsa's azur-eosin-methyle blue staining based light microscopy analysis. The data set is classed as functional, organism-based. The conditions noted are these: Peritoneal macrophage, dose 5-40 µM.

The test system of data set [15] is Leishmania amazonensis. Nature of the data set: Antileishmanial activity against Leishmania amazonensis (MHOM/BR/76/MA-76) intracellular amastigotes infected in BALB/c mouse peritoneal macrophages assessed as number of amastigotes per cell at 15.52 uM pretreated with 1400W for 1 hr followed by test compound addition measured after 24 hrs by Giemsa's azur-eosin-methylene blue staining based light microscopy analysis. The data set is classed as functional, Peritoneal macrophage.

Data set [16] has as its system Leishmania amazonensis. The data set is described as follows: Antileishmanial activity against Leishmania amazonensis (MHOM/BR/76/MA-76) intracellular amastigotes infected in BALB/c mouse peritoneal macrophages assessed as reduction in parasite growth incubated for 24 hrs by Giemsa's azur-eosin-methyle blue staining based light microscopy analysis. The data set is classed as functional, organism-based. The conditions noted are these: MHOM/BR/76/MA-76, Peritoneal macrophage.

The nature of data set [17]: Cytotoxicity against human CCD-1072Sk cells assessed as reduction in cell viability at <400 uM measured after 24 hrs by MTT assay. The data set is classed as cell-based.
The nature of data set [18]: Selectivity index, ratio of CC50 for cytotoxicity against BALB/c mouse peritoneal macrophages to IC50 for antileishmanial activity against Leishmania amazonensis (MHOM/BR/76/MA-76) promastigotes. The data set is classed as toxicity. The conditions noted are these: read-out: Ratio CC50/IC50.
Data set [19] deals with Peritoneal macrophage. Nature of the data set: Upregulation of IL-6 mRNA expression in BALB/c mouse peritoneal macrophages stimulated with Leishmania amazonensis at 50 uM measured after 48 hrs by qRT-PCR analysis. It counts as functional, tissue-based. In general terms: Quantitative PCR measures a nucleic acid by following its amplification.
Data set [20] in a line: Upregulation of iNOS mRNA expression in BALB/c mouse peritoneal macrophages stimulated with Leishmania amazonensis at 50 uM measured after 48 hrs by qRT-PCR analysis. It counts as functional, Peritoneal macrophage.
For data set [21], the system named is Leishmania amazonensis. The data set is described as follows: Induction of morphological changes in Leishmania amazonensis (MHOM/BR/76/MA-76) promastigotes assessed as kinetoplast swelling at IC50 incubated for 24 hrs by transmission electron microscopy analysis. It counts as functional, organism-based.
The subject of data set [22] is Leishmania amazonensis. Nature of the data set: Antileishmanial activity against Leishmania amazonensis (MHOM/BR/76/MA-76) intracellular amastigotes infected in BALB/c mouse peritoneal macrophages assessed as number of amastigotes per 100 cells at 15.52 uM measured after 24 hrs by Giemsa's azur-eosin-methylene blue staining based light microscopy analysis. The data set is classed as functional, Peritoneal macrophage.

Data set [23] has as its system Peritoneal macrophage. Nature of the data set: Upregulation of IL-1beta mRNA expression in BALB/c mouse peritoneal macrophages stimulated with Leishmania amazonensis at 50 uM measured after 48 hrs by qRT-PCR analysis. The data set is classed as functional, tissue-based.
Data set [24] has as its system Peritoneal macrophage. The data set is described as follows: Induction of NO production in BALB/C mouse peritoneal macrophages assessed as nitrite levels at 100 uM measured after 48 hrs by Griess reagent based assay (Rvb= 3.22 +/- 0.570 uM). The data set is classed as functional.
The test system of data set [25] is Peritoneal macrophage. Nature of the data set: Induction of NO production in BALB/C mouse peritoneal macrophages infected with Leishmania amazonensis assessed as nitrite levels at 50 uM measured after 48 hrs by Griess reagent based assay (Rvb= 4.11 +/- 0.156 uM). It counts as functional.
A short description of data set [26]: Selectivity index, ratio of CC50 for cytotoxicity against BALB/c mouse peritoneal macrophage to IC50 for antileishmanial activity against Leishmania amazonensis (MHOM/BR/76/MA-76) intracellular amastigotes infected in BALB/c mouse peritoneal macrophages. The conditions noted are these: read-out: Ratio CC50/IC50. It counts as toxicity, cell-based.
Data set [27] concerns Leishmania amazonensis. The data set is described as follows: Antileishmanial activity against Leishmania amazonensis (MHOM/BR/76/MA-76) intracellular amastigotes infected in BALB/c mouse peritoneal macrophages assessed as number of amastigotes per 100 cells at 15.52 uM pretreated with 1400W for 1 hr followed by test compound addition measured after 24 hrs by Giemsa's azur-eosin-methylene blue staining based light microscopy analysis. The data set is classed as functional, Peritoneal macrophage.

Data set [28] concerns Leishmania amazonensis. The data set is described as follows: Antileishmanial activity against Leishmania amazonensis (MHOM/BR/76/MA-76) intracellular amastigotes infected in BALB/c mouse peritoneal macrophages assessed as upward shift in concentration response curves of parasite viability incubated for 24 hrs by Giemsa's azur-eosin-methyle blue staining based light microscopy analysis. It counts as functional, organism-based. Conditions: Peritoneal macrophage.

In data set [29] the test system is Peritoneal macrophage. Nature of the data set: Cytotoxicity against BALB/C mouse peritoneal macrophages assessed as reduction in cell viability at 100 uM measured after 24 hrs by MTT assay relative to control. It counts as cell-based.
For data set [30], the system named is Leishmania amazonensis. The data set is described as follows: Induction of morphological changes in Leishmania amazonensis (MHOM/BR/76/MA-76) promastigotes assessed as lipid inclusions at IC50 incubated for 24 hrs by transmission electron microscopy analysis. The data set is classed as functional, organism-based.
Data set [31] is described as follows: Upregulation of iNOS mRNA expression in BALB/c mouse peritoneal macrophages at 50 uM measured after 48 hrs by qRT-PCR analysis relative to control. The data set is classed as functional, Peritoneal macrophage.
Data set [32] concerns Leishmania amazonensis. The data set is described as follows: Antileishmanial activity against Leishmania amazonensis (MHOM/BR/76/MA-76) intracellular amastigotes infected in BALB/c mouse peritoneal macrophages assessed as percentage of infected cells at 15.52 uM pretreated with 1400W for 1 hr followed by test compound addition measured after 24 hrs by Giemsa's azur-eosin-methylene blue staining based light microscopy analysis. It counts as functional, Peritoneal macrophage.

The test system of data set [33] is Peritoneal macrophage. Nature of the data set: Upregulation of TNF-alpha mRNA expression in BALB/c mouse peritoneal macrophages stimulated with Leishmania amazonensis at 50 uM measured after 48 hrs by qRT-PCR analysis. It counts as functional, tissue-based.
Data set [34] relates to Peritoneal macrophage. The data set is described as follows: Upregulation of IL-10 mRNA expression in BALB/c mouse peritoneal macrophages stimulated with Leishmania amazonensis at 50 uM measured after 48 hrs by qRT-PCR analysis. The data set is classed as functional, tissue-based.
The test system of data set [35] is Peritoneal macrophage. Nature of the data set: Induction of NO production in BALB/C mouse peritoneal macrophages assessed as nitrite levels at 50 uM measured after 48 hrs by Griess reagent based assay (Rvb= 3.22 +/- 0.570 uM). The data set is classed as functional.
Data set [36] concerns Leishmania amazonensis. The data set is described as follows: Induction of morphological changes in Leishmania amazonensis (MHOM/BR/76/MA-76) promastigotes assessed as formation of membrane profiles near the flagellar pocket at IC50 incubated for 24 hrs by transmission electron microscopy analysis. The data set is classed as functional, organism-based.

With `CC(=N)NCc1cccc(CN)c1.Cl.Cl`, the Activity in [1] stood at 2.06 µM.
The CC50 is the concentration at which the toxic effect on the cells reaches its halfway point. The IC50 is the point on the concentration scale where inhibition reaches its midpoint. For `OC(c1ccc(Br)cc1)c1cn(-c2ccc(Br)cc2)nn1` (stereo unspecified), the outcome in [2], in [5], in data set [6], in [11], in [14] and in [21] was Active. In addition, the outcome in [23], in [28], in [30], in data set [33] and in data set [36] was Active. Moreover, the outcome in data set [3], in [19] and in [34] was inactive. Moreover, the Activity in data set [4] was 3.06 µM; in data set [8] it was 2.65 µM; in [12] it was 55.6; in [13] it was 2.86; in data set [15] it was 3.68; in [17], “Non-Toxic”. Besides, the Activity in [22] came out at 169.38; in data set [24], 4.34 µM; in data set [25], 9.37 µM; in [27], 288.25; in data set [29] it was 65.79%; in data set [32], 79.6. Further, in data set [35], the Activity was 4.63 µM. The CC50 at 24 h in [7] was 84 µM. Besides, the 50% inhibitory concentration (IC50) in [9] worked out at 15.5 µM; in data set [16], 4.1 µM. In data set [10], the “Ratio IC50” value is recorded as 3.7. The selectivity ratio worked out at 5.41 in data set [18] and 20.5 in data set [26]. For the same compound, the entries for the “fold change (FC)” value in data set [20] and in data set [31] were 24.47 and 12.28, respectively.

Values taken from ChEMBL document CHEMBL5053500, “Nitric Oxide Induction in Peritoneal Macrophages by a 1,2,3-Triazole Derivative Improves Its Efficacy upon Leishmania amazonensis In Vitro Infection” (J Med Chem, 2021).
